Experiments:
[1] = system: edema (swelling), experimental inflammation in the hind limb of rats; assay: Anti-inflammatory activity, reduction of edema of experimentally inflamed hind limb; assay type: in vivo, albino rats; details: for anti-inflammatory effect: oral dosage of 600 mg./kg.; for ED50: Rattus norvegicus, read-out: oral median effective dose (ED50), anti-inflammatory
Protocol: anti-inflammatory activity was assayed by the method described by Margolin (ibid.) utilizing albino rats. The anti-inflammatory bio-assay basis is the ability to reduce the edema (swelling) when an experimental inflammation is induced in the hind limb of the rats.

[2] = General comparison of side effects and therapeutic activity in the several tests; details: in vivo
[3] = system: rats with the hind limb inflammed; assay: Analgesic activity, rats with inflamed hind limb (absence of squeal on flexion of inflamed ankle joint); assay type: in vivo, rat; details: for ED50: Rattus norvegicus, read-out: oral ED50 (median analgesic dose); for ED50 / side effects at the median analgesic dose: oral; for side effects at the median analgesic dose: at ED50 dosage (AMR-94 160 mg./kg.; AMR-93 325 mg./kg.)
Protocol: the end-point for analgesic testing in rats with the hind limb inflammed is based on the absence of a squeal in response to flexion of the inflammed ankle joint (Method described by S. Margolin, Proceedings of an International Symposium on Non-Steroidal Anti-Inflammatory Drugs, Excerpta Medica International Congress, Series No. 82, 1964).
With AMR-93, the median effective dose was 325 ± 45 mg./kg.

[4] = system: experimentally-induced fever in albino rabbits; assay: Anti-pyretic activity, experimentally-induced fever in rabbits; assay type: in vivo; details: for anti-pyretic activity: induced fever
Protocol: anti-pyretic activity testing is based upon the ability of the drug to suppress the experimentally-induced fever in albino rabbits (F. M. Berger, et al. J. Pharmacology and Experimental Therapeutics, Vol. 127, No. 1, 1959 based upon the original presentations of G. Brownlee Quart. J. Pharm; Vol. 10, Pg. 609, 1937 and Quart. J. Pharm., Vol. 12, Pg. 45, 1939). The drugs under test are administered intraperitoneally and the response is compared to that of saline controls. The average change in temperature over a period of three hours following the administration of aminopyrine (100 mg./kg. i.p.), AMR-69 (100 mg./kg. i.p.) and the saline (isotonic) controls were as follows:
The effective anti-pyretic activity of AMR-69 in rabbits has been noted previously.

[5] = system: mucous membranes of the nasopharynx and lungs; assay: Protection of mucous membranes of the nasopharynx and lungs, comparison with related pyridones; assay type: in vivo; details: for protection of mucous membranes of the nasopharynx and lungs: comparison with related pyridones; for side effects / deleterious effects on the respiratory system: mucous membrane protection tests
[6] = system: serum uric acid; assay: Reduction in serum uric acid levels, rats; assay type: in vivo, albino male and female rats; details: albino male and female rats, similar tests
Protocol: normal adult albino male and female rats were given repeated graded doses of AMR-69 and the effect upon serum uric acid levels was determined. There were 10 males and 10 females in each group. The control group received the placebo and the drug was administered orally by admixture to the food. The serum uric acid determination was one of a series performed utilizing the Autotechnicon technique (Lofland et al., 1965 Technicon Symposium) using the Standard SMA-12 procedure (based upon procedure of Bittner et al., AM. J. Clin. Path. 40:423, 1963).
The lowering in serum uric acid levels shown by AMR-69 in tests on rats and on dogs has been noted.

[7] = system: experimentally-induced fever in albino rabbits; assay: Anti-pyretic activity, experimentally-induced fever in rabbits; assay type: in vivo; details: animals without experimentally induced fever as well
[8] = Acute toxicity in mice; assay type: in vivo; details: mouse, in vivo, ip; fasted albino mice, intraperitoneal; read-out: Intraperitoneally LD50
Protocol: in fasted albino mice (Flanders) the LD50 for AMR-69 and aminopyrine was determined by standard procedures with the following results: […]

Structure (SMILES) | anti-inflammatory effect [1] | deleterious side effects in the several tests [2] | ED50 [3] [mg/kg] | side effects at the median analgesic dose [3] | anti-pyretic activity ([4]; rabbits) | protection of mucous membranes of the nasopharynx and lungs [5] | side effects / deleterious effects on the respiratory system [5] | change in serum uric acid level [6] | ED50 ([1]; oral) [mg/kg] | side-effects at anti-inflammatory ED50 ([1]; oral) | analgesic effect at a dosage low enough to obviate Central Nervous System depression [3] | convulsions observed, test animals ([4]; rabbits) | effect on normal body temperature [7] | LD50 [8] [mg/kg] | average change in temperature over a period of three hours ([4]; 100 mg./kg. i.p., fevered albino rabbits, saline controls +0.9 ±0.17°C) [°C] | reduction in fever as compared to the saline control ([4]; 100 mg./kg. i.p., aminopyrine t = 6.6, p < 0.01, AMR-69 t = 6.3, p < 0.01) | therapeutic activity in the several tests [2] | analgesic activity relative to AMR-69 ([3]; oral route)
O=c1ccccn1-c1ccccc1 [AMR-93, 1-phenyl-2-(1H)-pyridone] | No anti-inflammatory effect was observed | accompanied by deleterious side effects | 325 ± 45 | acute bleeding from the nose and an autopsy revealed multiple hemorrhages and edema of the lungs | No significant anti-pyretic activity was observed | did not show a protective effect | undesirable side effects were evident | did not show a significant change in serum uric acid level | – | – | – | – | – | – | – | – | – | –
CCc1ccc(=O)n(-c2ccccc2)c1 [AMR-94, 5-ethyl-1-phenyl-2-(1H)-pyridone] | – | accompanied by deleterious side effects | 160 ± 32 | marked sedation, Central Nervous System depression, loss of respiratory efficiency, ataxia, and uncoordinated gait | slight reduction in induced fever which was not considered statistically significant | did not show a protective effect | undesirable side effects were evident | did not show a significant change in serum uric acid level | 225 ± 52 | accompanied by undesired side-effects | could not be demonstrated | two of the four | marked lowering of normal body temperature | – | – | – | – | –
Cc1c(N(C)C)c(=O)n(-c2ccccc2)n1C [Aminopyrine, aminopyrine, reference compound] | – | – | 150 ± 26 | – | – | – | – | – | 185 ± 31 | – | – | – | – | 175 ± 9 | -0.6 ±0.16 | highly significant | – | –
Cc1cccn(-c2ccccc2)c1=O [AMR-77, 3-methyl-1-phenyl-2-(1H)-pyridone] | No anti-inflammatory effect was observed | not observed | 515 ± 45 | – | No significant anti-pyretic activity was observed | no evidence of protective action | No acute deleterious effects on the respiratory system were observed | – | – | – | – | – | – | – | – | – | neither was significant therapeutic activity demonstrated | approximately one-third to one-fourth the activity of AMR-69
